Assay results taken from patent US4473573A, “N-(2-methoxyethyl)-noroxymorphone and pharmaceutical compositions for relieving pain containing same” (Boehringer Ingelheim KG, priority 1982, dated 1984).
Structures can show the parent of a compound that is named as a salt. Where two headings read alike, the source gives them in different places.

What was measured:
mice [1] = assay: therapeutic range based upon the effect in the writhing test; format: in vivo; conditions: LD50 s. c. based upon the effect in the writhing test
From the text: (§1) The comparison values are 1600 for the standard analgesic morphine and 169 for the agonist-antagonist pentazocine which is used therapeutically as an analgesic.

[2] = writhing test (analgesic property); format: in vivo; conditions: s. c.; for ED50: sc
[3] = activity compared with the compound of Formula I (test not named); conditions: for activity relative to the compound of Formula I: compound of Formula I = 1; for effect of etherification of the phenolic hydroxy group on activity: compared with Formula I
mice [4] = conditions: ascribed; opioid kappa agonist of the benzomorphane series; cited from earlier work
mice [5] = assay: inhibition of locomotion (sedation); format: in vivo; conditions: up to 100 mg/kg for Formula I, comparison substances in or near the therapeutic dosage range
From the text: Another advantage of the compound of Formula I over newer substances, not yet used therapeutically, selected from the opioid kappa agonists of the benzomorphane series, to which a high therapeutic range is also ascribed (for example, 1800 for ethylketazocine), is the absence of any strong sedation. This can be recognized in the comparison substances as an inhibition of locomotion in mice in or near the therapeutic dosage range. In the compound of Formula I, however, this effect was not observed in the range tested up to very high doses of 100 mg/kg.

[6] = tested on: morphine-dependent monkeys; assay: withdrawal test in morphine-dependent monkeys; format: in vivo
From the text: (§2) The non-morphine-like activity profile can be recognized from the absence of typical side effects produced by opiates.
In morphine-dependent monkeys there is found to be increased sensitivity of morphine antagonists which trigger withdrawal symptoms, dependent upon dosage.

acute toxicity (LD50) = conditions: mouse, in vivo, sc; s. c., mice
From the text: as §1

[7] = tested on: analgesia produced by morphine; assay: Haffner test, reversal of the analgesia produced by morphine; format: in vivo; conditions: s. c.; for ED50: sc, read-out: AD50, Haffner test
[8] = cited from earlier work
[9] = Straub morphine tail phenomenon / compulsive circular motion (typical opiate side effects); format: in vivo; conditions: hydrochloride
From the text: as §2

SMILES: CN1CC[C@]23c4c5ccc(O)c4O[C@H]2[C@@H](O)C=C[C@H]3[C@H]1C5 [morphine, reference compound]
- therapeutic range (mice [1]): 1600
- ED50, writhing test [2]: 0.47 mg/kg

SMILES: COCCCN1CC[C@]23c4c5ccc(O)c4O[C@H]2C(=O)CC[C@@]3(O)[C@H]1C5 [Formula IIId]
- activity relative to the compound of Formula I [3]: 1/25

SMILES: CC[C@]12CCN(CC3CC3)[C@H](C(=O)c3ccc(O)cc31)[C@@H]2C [ethylketazocine]
- therapeutic range (mice [4]): 1800

SMILES: CCOCCN1CC[C@]23c4c5ccc(O)c4O[C@H]2C(=O)CC[C@@]3(O)[C@H]1C5 [Formula IIIa]
- activity relative to the compound of Formula I [3]: 1/20

SMILES: CN1CC[C@]23c4c5ccc(O)c4O[C@H]2C(=O)CC[C@@]3(O)[C@H]1C5 [oxymorphone]
- ED50 [2]: 0.032 mg/kg

SMILES: CC(C)=CCN1CCC2(C)c3cc(O)ccc3CC1C2C (centres unmarked) [pentazocine]
- therapeutic range (mice [1]): 169

SMILES: CCOCCN1CC[C@]23c4c5ccc(OC)c4O[C@H]2C(=O)CC[C@@]3(O)[C@H]1C5 [Formula IIIc]
- effect of etherification of the phenolic hydroxy group on activity [3]: reduces the activity

SMILES: COCCN1CC[C@]23c4c5ccc(OC)c4O[C@H]2C(=O)CC[C@@]3(O)[C@H]1C5 [Formula IIIb]
- effect of etherification of the phenolic hydroxy group on activity [3]: reduces the activity
- activity relative to the compound of Formula I [3]: 1/84

SMILES: COCCN1CC[C@]23c4c5ccc(O)c4O[C@H]2C(=O)CC[C@@]3(O)[C@H]1C5 [Formula I, N-(2-methoxyethyl)-noroxymorphone]
- inhibition of locomotion (strong sedation) (mice [5]): not observed
- therapeutic range (mice [1]): 103,846
- antagonist strength compared with naloxone ([6]; morphine-dependent monkeys, triggering of withdrawal symptoms): as strong as naloxone
- times stronger than morphine, writhing test ([2]; relative to morphine): about 36 times
- times stronger than oxymorphone, writhing test ([2]; relative to oxymorphone): about 2.5 times
- ED50 [2]: 0.013 mg/kg
- LD50 (acute toxicity (LD50)): 1350 mg/kg
- antagonistic activity relative to naloxone ([7]; Haffner test, naloxone = 1): about 1/10
- ED50 [7]: 0.3 mg/kg

SMILES: O=C1CC[C@@]2(O)[C@H]3Cc4ccc(O)c5c4[C@@]2(CCN3CC2CC2)[C@H]1O5 [naltrexone]
- antagonist character ([8]; in vivo): pure antagonists
- analgesic activity ([8]; pure antagonists): no analgesic activity

SMILES: COCCN1CC[C@]23c4c5ccc(O)c4O[C@H]2C(=O)CC[C@@]3(O)[C@H]1C5 [N-(2-methoxyethyl)-noroxymorphone hydrochloride]
- relieving the withdrawal symptoms in morphine-dependent monkeys ([6]; after morphine has been withdrawn, hydrochloride): not capable of relieving the withdrawal symptoms
- effect on withdrawal symptoms (antagonist behaviour) ([6]; morphine-dependent monkeys, hydrochloride): aggravates the withdrawal symptoms
- Straub morphine tail phenomenon [9]: does not show
- compulsive circular motion [9]: does not show

SMILES: C=CCN1CC[C@]23c4c5ccc(O)c4O[C@H]2C(=O)CC[C@@]3(O)[C@H]1C5 [naloxone, reference compound]
- ED50 [7]: 0.03 mg/kg
